Legend:
Experiment in all cases: In Vitro Kinase Assay
Settings in all cases: pH 7.5
[1] = biological target: Insulin-like growth factor 1 receptor (Homo sapiens, UniProt P08069)
Description: (§1) The IC50 for the different compounds was determined with Invitrogen Z'-LYTE kinase assay kit Ser/Thr 1 peptide PV3174 by following the manufacturer's instructions. To determine the IC50 of receptor tyrosine kinase, an assay based on the ELISA principle with kinases from Biomol (N-terminally fused to GST), POD-coupled antibody from Calbiochem (PY20)) and BM chem chemiluminescence ELISA substrate from Roche was performed.

Aurora kinase A = biological target: T1, Aurora kinase A (Homo sapiens, UniProt O14965)
T1 sequence (O14965 whole entry): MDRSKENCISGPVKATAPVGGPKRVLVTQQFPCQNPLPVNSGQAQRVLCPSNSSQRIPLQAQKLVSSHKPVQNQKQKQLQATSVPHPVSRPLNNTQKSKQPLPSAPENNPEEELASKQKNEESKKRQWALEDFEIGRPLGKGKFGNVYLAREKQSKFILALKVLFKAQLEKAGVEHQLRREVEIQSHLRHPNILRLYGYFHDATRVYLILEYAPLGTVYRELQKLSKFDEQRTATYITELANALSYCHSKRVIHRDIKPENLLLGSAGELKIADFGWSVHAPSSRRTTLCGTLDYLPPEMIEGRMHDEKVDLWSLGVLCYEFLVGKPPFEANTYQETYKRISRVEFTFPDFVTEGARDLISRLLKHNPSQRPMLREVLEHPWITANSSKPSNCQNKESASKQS
Description: as §1

[2] = biological target: Vascular endothelial growth factor receptor 2 (Homo sapiens, UniProt P35968)
Description: as §1

[3] = biological target: Fibroblast growth factor receptor 1 (Homo sapiens, UniProt P11362)
Description: as §1

[4] = biological target: Epidermal growth factor receptor (Homo sapiens, UniProt P00533)
Sequence of Epidermal growth factor receptor (P00533 whole entry): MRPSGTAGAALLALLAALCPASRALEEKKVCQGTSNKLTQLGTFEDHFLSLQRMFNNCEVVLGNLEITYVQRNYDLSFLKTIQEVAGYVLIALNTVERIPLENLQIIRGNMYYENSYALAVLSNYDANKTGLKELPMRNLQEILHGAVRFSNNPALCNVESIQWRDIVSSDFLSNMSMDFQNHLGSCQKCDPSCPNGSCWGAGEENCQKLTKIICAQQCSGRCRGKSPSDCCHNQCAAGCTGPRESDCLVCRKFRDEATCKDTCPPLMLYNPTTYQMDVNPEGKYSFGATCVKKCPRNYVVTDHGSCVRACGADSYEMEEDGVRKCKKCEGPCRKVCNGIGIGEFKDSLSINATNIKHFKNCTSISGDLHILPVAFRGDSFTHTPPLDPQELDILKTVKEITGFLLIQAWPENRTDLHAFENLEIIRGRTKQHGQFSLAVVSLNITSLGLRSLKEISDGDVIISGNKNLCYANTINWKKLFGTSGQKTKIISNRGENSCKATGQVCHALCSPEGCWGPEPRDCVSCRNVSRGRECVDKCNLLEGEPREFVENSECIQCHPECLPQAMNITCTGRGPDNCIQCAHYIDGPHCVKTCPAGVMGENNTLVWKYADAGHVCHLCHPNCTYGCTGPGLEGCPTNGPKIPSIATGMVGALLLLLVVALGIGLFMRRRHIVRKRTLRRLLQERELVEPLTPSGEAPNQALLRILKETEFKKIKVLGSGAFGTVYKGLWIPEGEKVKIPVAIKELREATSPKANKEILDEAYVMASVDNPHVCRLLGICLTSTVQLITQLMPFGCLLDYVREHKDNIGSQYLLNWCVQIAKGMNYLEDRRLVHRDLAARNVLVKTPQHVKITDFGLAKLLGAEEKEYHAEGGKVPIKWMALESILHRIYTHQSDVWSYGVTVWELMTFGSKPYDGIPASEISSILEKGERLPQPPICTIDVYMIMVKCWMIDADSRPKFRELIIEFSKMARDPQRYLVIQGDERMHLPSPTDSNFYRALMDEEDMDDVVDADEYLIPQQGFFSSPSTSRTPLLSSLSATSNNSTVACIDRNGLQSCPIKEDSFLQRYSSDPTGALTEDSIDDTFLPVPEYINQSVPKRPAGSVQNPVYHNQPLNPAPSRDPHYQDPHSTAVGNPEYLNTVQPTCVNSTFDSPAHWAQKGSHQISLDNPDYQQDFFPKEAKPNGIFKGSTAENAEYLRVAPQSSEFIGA
Description: as §1

Aurora kinase B = Aurora kinase B (Homo sapiens, UniProt Q96GD4)
Description: as §1

[5] = biological target: Vascular endothelial growth factor receptor 3 (Homo sapiens, UniProt P35916)
Sequence of Vascular endothelial growth factor receptor 3 (P35916 whole entry): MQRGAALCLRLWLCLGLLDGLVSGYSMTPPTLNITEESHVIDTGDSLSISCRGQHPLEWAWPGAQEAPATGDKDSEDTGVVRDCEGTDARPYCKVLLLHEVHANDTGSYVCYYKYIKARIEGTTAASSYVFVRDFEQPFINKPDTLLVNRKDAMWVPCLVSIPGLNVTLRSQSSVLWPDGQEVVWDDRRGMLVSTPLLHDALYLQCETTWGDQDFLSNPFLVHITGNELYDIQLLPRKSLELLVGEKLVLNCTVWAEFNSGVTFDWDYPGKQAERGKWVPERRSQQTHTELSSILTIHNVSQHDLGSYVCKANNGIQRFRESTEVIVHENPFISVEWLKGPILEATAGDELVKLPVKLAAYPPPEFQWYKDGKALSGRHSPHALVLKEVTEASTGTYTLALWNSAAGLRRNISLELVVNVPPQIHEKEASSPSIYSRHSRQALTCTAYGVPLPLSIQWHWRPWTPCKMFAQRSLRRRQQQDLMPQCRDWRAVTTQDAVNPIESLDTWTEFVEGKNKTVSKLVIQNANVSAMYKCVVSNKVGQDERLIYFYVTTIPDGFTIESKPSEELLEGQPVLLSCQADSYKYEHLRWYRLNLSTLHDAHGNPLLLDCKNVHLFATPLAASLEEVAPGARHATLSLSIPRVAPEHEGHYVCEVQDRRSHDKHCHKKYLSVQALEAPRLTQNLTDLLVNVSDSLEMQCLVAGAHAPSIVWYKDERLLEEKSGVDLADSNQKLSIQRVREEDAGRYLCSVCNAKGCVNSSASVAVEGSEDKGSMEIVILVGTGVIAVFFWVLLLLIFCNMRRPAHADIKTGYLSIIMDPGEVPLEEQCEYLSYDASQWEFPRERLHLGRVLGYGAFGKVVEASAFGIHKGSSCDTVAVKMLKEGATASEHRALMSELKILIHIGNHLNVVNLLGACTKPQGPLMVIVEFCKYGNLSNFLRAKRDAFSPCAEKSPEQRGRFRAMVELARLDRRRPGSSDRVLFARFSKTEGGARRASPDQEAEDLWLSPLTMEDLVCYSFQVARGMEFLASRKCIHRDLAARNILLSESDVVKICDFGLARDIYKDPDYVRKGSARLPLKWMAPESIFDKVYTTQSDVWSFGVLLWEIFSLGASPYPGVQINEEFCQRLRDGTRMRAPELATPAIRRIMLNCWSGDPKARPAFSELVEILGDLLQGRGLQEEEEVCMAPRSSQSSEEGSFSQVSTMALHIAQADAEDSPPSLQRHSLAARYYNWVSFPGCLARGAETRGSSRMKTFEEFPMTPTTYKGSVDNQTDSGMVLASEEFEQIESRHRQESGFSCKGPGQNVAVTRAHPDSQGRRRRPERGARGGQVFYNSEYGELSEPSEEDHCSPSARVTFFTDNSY
Description: as §1

Angiopoietin-1 receptor = Angiopoietin-1 receptor (Homo sapiens, UniProt Q02763)
Sequence of Angiopoietin-1 receptor (Q02763 whole entry): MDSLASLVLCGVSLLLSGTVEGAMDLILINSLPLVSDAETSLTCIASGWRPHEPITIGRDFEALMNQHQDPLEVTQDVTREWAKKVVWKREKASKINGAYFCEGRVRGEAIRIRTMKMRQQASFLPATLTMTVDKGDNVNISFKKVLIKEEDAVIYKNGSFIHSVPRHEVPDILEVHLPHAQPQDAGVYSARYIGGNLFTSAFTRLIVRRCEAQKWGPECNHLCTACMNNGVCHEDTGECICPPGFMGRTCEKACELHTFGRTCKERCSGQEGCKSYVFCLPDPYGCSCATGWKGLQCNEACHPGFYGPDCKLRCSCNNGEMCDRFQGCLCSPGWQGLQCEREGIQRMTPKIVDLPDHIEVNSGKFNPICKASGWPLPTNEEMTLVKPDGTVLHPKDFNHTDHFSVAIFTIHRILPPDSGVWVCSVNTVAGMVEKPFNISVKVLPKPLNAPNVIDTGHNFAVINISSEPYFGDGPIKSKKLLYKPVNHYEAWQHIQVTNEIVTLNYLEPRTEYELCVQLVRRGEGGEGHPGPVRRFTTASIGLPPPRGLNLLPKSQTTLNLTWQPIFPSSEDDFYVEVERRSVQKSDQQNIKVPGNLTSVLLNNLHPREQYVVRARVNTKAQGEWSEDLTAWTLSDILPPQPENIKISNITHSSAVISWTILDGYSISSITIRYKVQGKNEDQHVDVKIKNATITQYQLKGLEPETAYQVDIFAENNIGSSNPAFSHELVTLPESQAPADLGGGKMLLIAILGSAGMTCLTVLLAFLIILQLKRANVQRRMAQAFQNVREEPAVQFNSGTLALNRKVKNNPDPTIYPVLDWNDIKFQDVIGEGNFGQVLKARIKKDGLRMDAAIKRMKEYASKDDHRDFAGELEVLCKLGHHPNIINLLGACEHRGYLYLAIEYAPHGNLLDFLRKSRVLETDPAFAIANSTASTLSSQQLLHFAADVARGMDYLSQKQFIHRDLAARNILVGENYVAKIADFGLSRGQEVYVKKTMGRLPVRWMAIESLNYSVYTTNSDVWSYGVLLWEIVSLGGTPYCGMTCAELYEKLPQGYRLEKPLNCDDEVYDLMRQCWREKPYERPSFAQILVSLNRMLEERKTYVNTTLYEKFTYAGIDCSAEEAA
Description: as §1

Sequence of Insulin-like growth factor 1 receptor (P08069 31-736 limits assumed): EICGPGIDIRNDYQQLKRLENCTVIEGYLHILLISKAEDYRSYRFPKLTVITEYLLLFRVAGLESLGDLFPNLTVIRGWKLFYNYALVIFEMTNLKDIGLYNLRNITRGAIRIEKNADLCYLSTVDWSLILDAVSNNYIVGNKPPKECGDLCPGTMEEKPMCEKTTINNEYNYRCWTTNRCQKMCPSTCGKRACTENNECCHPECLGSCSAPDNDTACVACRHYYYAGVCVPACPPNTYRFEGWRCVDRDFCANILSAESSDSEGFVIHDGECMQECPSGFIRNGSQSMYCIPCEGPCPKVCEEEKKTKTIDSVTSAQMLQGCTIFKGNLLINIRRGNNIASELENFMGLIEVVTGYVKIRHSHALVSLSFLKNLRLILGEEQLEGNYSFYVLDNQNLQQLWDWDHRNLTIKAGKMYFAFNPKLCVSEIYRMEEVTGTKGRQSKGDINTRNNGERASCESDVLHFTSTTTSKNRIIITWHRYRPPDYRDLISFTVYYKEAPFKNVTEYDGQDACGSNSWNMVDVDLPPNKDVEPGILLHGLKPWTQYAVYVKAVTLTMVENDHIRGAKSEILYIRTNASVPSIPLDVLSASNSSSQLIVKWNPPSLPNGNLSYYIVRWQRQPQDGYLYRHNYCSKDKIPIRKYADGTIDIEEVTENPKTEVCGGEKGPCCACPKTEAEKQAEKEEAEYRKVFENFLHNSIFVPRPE
Sequence of Insulin-like growth factor 1 receptor (P08069 741-1367 limits assumed): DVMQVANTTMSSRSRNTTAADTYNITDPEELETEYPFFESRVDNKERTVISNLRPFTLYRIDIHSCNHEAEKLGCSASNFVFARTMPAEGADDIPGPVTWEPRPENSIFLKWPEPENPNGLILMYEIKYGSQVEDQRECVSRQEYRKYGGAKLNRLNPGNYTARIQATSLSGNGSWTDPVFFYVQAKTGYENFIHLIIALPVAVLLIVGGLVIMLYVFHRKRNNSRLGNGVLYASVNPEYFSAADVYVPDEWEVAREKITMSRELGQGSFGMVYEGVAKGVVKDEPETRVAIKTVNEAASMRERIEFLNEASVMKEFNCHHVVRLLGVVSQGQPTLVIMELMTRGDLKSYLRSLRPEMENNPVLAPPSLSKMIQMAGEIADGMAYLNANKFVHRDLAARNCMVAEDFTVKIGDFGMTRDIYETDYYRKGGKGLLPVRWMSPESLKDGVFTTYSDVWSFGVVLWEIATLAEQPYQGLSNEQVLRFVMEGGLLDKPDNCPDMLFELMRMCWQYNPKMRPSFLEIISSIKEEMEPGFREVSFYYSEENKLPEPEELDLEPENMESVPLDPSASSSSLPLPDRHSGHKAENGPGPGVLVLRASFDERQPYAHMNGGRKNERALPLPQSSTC

Row | SMILES | IC50 [1] [µM] | IC50 (Aurora kinase A) [nM] | IC50 [2] [µM] | IC50 [3] [µM] | IC50 [4] [µM] | IC50 (Aurora kinase B) [µM] | IC50 [5] [µM] | IC50 (Angiopoietin-1 receptor) [µM]
1 | CC(C)Nc1nc(-c2ccco2)nc2ccc(C#CCO)cc12 [TC-28] | > 100 | 2700 | > 100 | > 100 | > 100 | > 100 | > 100 | > 100
2 | CC(C)Nc1nc(-c2ccco2)nc2ccc(C=CC(C)(C)O)cc12 [TC-34] | 41.5 | 1900 |  | > 100 | > 100 | 16.2 | 4.2 | > 100
